{"source": "paper PMC9866706", "about": "(Toxins, 2022)", "key": {"Nav1.8": {"test_system": "Nav1.8", "parameters": "method as in earlier work", "conditions": "ref doi.org/10.1016/j.cub.2014.01.013; doi.org/10.1016/j.toxicon.2006.09.014; cited from earlier work"}, "TRPA1": {"test_system": "TRPA1", "parameters": "method as in earlier work", "conditions": "ref doi.org/10.1016/j.cub.2014.01.013; doi.org/10.1016/j.toxicon.2006.09.014; cited from earlier work"}, "Nav1.5": {"test_system": "Nav1.5", "parameters": "method as in earlier work", "conditions": "ref doi.org/10.1016/j.cub.2014.01.013; doi.org/10.1016/j.toxicon.2006.09.014; cited from earlier work"}, "Nav1.2": {"test_system": "Nav1.2", "parameters": "method as in earlier work", "conditions": "ref doi.org/10.1016/j.cub.2014.01.013; doi.org/10.1016/j.toxicon.2006.09.014; cited from earlier work"}, "Nav1.7": {"test_system": "Nav1.7", "parameters": "method as in earlier work", "conditions": "ref doi.org/10.1016/j.cub.2014.01.013; doi.org/10.1016/j.toxicon.2006.09.014; cited from earlier work"}, "mα1β1δε nAChR": {"target": "T1, mα1β1δε nAChR (Mus musculus, UniProt P02716+P04756+P09690+P20782)", "T1 construct": "expressed in transfected cells; host or cells: Xenopus laevis oocytes injected with cRNA", "T1 sequence (P20782 21-493)": "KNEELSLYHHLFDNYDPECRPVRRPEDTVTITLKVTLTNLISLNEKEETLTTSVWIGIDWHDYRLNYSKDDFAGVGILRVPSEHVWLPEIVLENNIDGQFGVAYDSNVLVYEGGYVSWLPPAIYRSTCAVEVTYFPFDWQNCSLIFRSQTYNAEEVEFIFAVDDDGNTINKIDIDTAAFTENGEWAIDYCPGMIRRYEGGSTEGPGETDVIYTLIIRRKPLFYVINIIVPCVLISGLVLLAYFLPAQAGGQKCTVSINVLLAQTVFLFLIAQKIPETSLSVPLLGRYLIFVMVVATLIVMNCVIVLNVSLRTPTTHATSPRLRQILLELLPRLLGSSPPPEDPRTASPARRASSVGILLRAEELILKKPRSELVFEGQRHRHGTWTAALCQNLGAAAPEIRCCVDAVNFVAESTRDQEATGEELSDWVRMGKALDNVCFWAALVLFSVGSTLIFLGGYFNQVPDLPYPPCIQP", "T1 sequence (P04756 21-457)": "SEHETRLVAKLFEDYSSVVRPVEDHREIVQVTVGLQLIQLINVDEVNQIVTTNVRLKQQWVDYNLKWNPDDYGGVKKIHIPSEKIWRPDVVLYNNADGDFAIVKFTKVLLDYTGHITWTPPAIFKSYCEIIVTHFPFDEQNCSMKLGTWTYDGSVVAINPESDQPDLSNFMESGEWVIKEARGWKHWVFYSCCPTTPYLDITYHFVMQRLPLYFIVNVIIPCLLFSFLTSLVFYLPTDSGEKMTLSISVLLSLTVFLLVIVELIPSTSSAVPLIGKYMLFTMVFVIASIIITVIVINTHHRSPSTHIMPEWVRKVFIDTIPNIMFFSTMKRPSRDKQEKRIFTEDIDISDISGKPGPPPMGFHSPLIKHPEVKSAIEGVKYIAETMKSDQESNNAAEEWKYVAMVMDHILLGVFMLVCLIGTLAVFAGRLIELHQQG", "T1 sequence (P09690 24-501)": "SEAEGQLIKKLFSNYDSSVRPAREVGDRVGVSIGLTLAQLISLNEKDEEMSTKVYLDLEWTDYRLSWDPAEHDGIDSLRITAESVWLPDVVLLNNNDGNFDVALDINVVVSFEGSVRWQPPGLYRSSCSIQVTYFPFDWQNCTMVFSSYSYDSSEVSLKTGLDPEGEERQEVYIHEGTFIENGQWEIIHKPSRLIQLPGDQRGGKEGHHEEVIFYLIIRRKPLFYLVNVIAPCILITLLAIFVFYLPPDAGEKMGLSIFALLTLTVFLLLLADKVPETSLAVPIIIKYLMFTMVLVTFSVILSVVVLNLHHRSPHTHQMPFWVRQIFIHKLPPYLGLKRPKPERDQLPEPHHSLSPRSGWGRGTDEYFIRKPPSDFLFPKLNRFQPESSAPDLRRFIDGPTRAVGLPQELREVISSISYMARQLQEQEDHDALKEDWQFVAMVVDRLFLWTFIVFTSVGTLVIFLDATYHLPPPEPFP", "T1 sequence (P02716 25-520)": "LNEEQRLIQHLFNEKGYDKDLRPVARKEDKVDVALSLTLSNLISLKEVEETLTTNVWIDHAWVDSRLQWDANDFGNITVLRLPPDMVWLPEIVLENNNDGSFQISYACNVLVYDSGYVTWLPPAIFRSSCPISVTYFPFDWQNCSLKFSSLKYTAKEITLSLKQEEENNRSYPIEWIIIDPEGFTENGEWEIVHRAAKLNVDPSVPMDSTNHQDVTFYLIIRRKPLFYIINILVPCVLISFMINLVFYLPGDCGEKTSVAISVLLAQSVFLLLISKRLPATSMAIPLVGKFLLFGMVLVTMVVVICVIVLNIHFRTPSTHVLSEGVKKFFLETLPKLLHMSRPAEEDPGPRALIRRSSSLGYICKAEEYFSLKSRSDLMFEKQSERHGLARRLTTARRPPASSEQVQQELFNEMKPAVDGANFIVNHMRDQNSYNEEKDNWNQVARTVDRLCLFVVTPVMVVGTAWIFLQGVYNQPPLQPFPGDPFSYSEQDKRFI", "test": "ACh-evoked currents in Xenopus oocytes (TEVC), mα1β1δε", "assay_type": "cell-based"}, "rα6/α3β4 nAChR": {"target": "T2, rα6/α3β4 nAChR (Rattus norvegicus, UniProt P04757+P12392+P43143)", "T2 construct": "expressed in transfected cells; host or cells: Xenopus laevis oocytes injected with cRNA", "test": "ACh-evoked currents in Xenopus oocytes (TEVC), rα6/α3β4", "assay_type": "cell-based"}, "rα4β2 nAChR": {"target": "T3, rα4β2 nAChR (Rattus norvegicus, UniProt P09483+P12390)", "T3 construct": "expressed in transfected cells; host or cells: Xenopus laevis oocytes injected with cRNA", "test": "ACh-evoked currents in Xenopus oocytes (TEVC), rα4β2", "assay_type": "cell-based"}, "rα2β4 nAChR": {"target": "T4, rα2β4 nAChR (Rattus norvegicus, UniProt P12389+P12392)", "T4 construct": "expressed in transfected cells; host or cells: Xenopus laevis oocytes injected with cRNA", "test": "ACh-evoked currents in Xenopus oocytes (TEVC), rα2β4", "assay_type": "cell-based"}, "rα4β4 nAChR": {"target": "T5, rα4β4 nAChR (Rattus norvegicus, UniProt P09483+P12392)", "T5 construct": "expressed in transfected cells; host or cells: Xenopus laevis oocytes injected with cRNA", "test": "ACh-evoked currents in Xenopus oocytes (TEVC), rα4β4", "assay_type": "cell-based"}, "rα3β4 nAChR": {"target": "T6, rα3β4 nAChR (Rattus norvegicus, UniProt P04757+P12392)", "T6 construct": "expressed in transfected cells; host or cells: Xenopus laevis oocytes injected with cRNA", "T6 sequence (P04757 26-499)": "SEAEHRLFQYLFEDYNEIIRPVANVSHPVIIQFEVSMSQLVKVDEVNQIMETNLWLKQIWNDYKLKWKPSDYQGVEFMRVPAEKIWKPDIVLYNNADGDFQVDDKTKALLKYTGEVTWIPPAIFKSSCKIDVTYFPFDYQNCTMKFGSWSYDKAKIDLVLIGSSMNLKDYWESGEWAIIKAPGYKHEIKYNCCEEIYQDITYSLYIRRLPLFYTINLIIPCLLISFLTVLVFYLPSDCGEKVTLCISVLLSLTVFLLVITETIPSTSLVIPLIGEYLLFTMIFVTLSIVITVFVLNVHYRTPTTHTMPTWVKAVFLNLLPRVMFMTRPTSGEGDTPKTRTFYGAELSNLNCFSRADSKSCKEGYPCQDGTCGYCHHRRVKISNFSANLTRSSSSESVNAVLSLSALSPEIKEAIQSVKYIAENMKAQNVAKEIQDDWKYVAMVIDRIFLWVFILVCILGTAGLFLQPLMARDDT", "T6 sequence (P12392 21-495)": "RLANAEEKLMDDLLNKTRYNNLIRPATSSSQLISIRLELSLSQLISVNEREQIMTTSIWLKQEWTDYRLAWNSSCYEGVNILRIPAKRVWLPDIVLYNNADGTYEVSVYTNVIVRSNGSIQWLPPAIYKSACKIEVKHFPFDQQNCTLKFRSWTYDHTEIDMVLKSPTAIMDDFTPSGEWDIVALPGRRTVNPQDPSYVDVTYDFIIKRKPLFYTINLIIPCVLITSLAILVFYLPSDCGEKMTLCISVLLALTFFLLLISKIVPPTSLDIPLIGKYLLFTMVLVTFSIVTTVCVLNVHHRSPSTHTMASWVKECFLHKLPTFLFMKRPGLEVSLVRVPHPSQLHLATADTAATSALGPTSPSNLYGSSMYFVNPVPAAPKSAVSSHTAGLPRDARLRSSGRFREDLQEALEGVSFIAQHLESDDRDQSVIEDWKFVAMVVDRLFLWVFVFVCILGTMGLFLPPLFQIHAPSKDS", "test": "ACh-evoked currents in Xenopus oocytes (TEVC), rα3β4", "assay_type": "cell-based"}, "rα7 nAChR": {"target": "T7, rα7 nAChR (Rattus norvegicus, UniProt Q05941)", "T7 construct": "expressed in transfected cells; host or cells: Xenopus laevis oocytes injected with cRNA", "T7 sequence (Q05941 23-502)": "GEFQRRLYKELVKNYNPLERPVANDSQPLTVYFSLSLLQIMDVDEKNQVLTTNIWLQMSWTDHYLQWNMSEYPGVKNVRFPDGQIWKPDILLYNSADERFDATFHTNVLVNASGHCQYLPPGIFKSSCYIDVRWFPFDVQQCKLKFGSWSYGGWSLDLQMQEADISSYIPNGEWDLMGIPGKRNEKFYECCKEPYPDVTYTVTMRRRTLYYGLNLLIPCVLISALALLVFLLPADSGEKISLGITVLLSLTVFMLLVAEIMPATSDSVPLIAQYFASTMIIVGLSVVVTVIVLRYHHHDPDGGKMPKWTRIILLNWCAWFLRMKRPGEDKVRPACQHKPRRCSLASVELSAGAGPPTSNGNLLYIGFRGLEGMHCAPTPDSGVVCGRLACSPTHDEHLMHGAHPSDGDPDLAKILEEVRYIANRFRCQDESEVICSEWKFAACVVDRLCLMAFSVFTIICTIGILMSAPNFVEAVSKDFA", "test": "ACh-evoked currents in Xenopus oocytes (TEVC), rα7", "assay_type": "cell-based"}, "rα3β2 nAChR": {"target": "T8, rα3β2 nAChR (Rattus norvegicus, UniProt P04757+P12390)", "T8 construct": "expressed in transfected cells; host or cells: Xenopus laevis oocytes injected with cRNA", "test": "ACh-evoked currents in Xenopus oocytes (TEVC), rα3β2", "assay_type": "cell-based"}, "rα9α10 nAChR": {"target": "T9, rα9α10 nAChR (Rattus norvegicus, UniProt P43144+Q9JLB5)", "T9 construct": "expressed in transfected cells; host or cells: Xenopus laevis oocytes injected with cRNA", "T9 sequence (Q9JLB5 25-447)": "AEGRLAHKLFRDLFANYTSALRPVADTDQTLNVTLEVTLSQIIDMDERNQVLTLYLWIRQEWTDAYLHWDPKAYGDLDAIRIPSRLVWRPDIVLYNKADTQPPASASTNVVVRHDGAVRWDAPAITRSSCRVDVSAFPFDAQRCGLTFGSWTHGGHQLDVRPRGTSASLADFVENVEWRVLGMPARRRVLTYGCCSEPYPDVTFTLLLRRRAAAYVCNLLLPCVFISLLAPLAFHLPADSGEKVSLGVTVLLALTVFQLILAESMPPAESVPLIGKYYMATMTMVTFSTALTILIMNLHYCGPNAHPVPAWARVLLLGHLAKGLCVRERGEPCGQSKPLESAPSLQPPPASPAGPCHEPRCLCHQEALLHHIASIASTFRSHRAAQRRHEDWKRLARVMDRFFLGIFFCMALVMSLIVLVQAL", "T9 sequence (P43144 26-479)": "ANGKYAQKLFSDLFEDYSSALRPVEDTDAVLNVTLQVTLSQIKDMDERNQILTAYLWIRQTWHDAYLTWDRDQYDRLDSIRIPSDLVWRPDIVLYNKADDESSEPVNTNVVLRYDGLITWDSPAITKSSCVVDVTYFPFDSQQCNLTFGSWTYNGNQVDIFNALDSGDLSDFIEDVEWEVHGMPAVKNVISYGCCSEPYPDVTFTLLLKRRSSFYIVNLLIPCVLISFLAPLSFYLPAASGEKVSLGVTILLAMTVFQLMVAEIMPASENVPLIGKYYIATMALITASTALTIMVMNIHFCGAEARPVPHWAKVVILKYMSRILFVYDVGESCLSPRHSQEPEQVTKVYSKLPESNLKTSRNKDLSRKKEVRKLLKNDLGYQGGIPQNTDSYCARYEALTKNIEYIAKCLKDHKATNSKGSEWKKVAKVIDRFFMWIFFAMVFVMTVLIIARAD", "test": "ACh-evoked currents in Xenopus oocytes (TEVC), rα9α10", "assay_type": "cell-based"}, "hα7 nAChR": {"target": "T10, hα7 nAChR (Homo sapiens, UniProt P36544)", "T10 construct": "expressed in transfected cells; host or cells: Xenopus laevis oocytes injected with cRNA", "T10 sequence (P36544 23-502)": "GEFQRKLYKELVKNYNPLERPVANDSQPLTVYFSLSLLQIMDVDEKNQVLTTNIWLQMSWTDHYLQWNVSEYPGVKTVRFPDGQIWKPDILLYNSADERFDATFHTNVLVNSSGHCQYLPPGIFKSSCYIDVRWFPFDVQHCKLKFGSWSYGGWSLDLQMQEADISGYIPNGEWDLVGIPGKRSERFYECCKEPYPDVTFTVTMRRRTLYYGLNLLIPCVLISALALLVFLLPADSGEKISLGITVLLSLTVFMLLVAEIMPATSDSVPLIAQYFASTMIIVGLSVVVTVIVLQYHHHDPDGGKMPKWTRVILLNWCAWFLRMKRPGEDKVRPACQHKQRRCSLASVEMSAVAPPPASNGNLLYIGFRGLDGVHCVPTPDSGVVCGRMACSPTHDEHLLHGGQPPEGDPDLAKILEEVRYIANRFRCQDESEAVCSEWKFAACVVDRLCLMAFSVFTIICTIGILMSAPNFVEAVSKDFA", "test": "ACh-evoked currents in Xenopus oocytes (TEVC), hα7", "assay_type": "cell-based"}, "rα2β2 nAChR": {"target": "T11, rα2β2 nAChR (Rattus norvegicus, UniProt P12389+P12390)", "T11 construct": "expressed in transfected cells; host or cells: Xenopus laevis oocytes injected with cRNA", "test": "ACh-evoked currents in Xenopus oocytes (TEVC), rα2β2", "assay_type": "cell-based"}, "TRPC1": {"test_system": "TRPC1", "parameters": "method as in doi.org/10.1016/j.toxicon.2006.09.030", "conditions": "ref doi.org/10.1016/j.toxicon.2006.09.030; cited from earlier work"}, "[1]": {"test_system": "neuronal tetrodotoxin-sensitive voltage-gated sodium channel of adult rat dorsal root ganglion neurons", "conditions": "cited from earlier work"}, "[2]": {"test_system": "tetrodotoxin-resistant voltage-gated sodium channel", "conditions": "cited from earlier work"}, "KVAP": {"test_system": "KVAP", "parameters": "method as in doi.org/10.1038/nature01473", "conditions": "ref doi.org/10.1038/nature01473; cited from earlier work"}}, "note": "Entries after “also recorded” stand apart in the source; their conditions may differ. Bridges are numbered along the chain shown (N, C = ends). Where no end group is shown, it is not given here."}
{"substance": "ProTx-I", "values": [{"measurement": "Target (that was in the corresponding Ref.)", "setting": "Nav1.8", "value": "Nav1.8"}, {"measurement": "IC50", "setting": "TRPA1", "value": "0.389 ± 0.077", "unit": "µM"}, {"measurement": "Target (that was in the corresponding Ref.)", "setting": "Nav1.5", "value": "Nav1.5"}, {"measurement": "Target (that was in the corresponding Ref.)", "setting": "Nav1.2", "value": "Nav1.2"}, {"measurement": "Target (that was in the corresponding Ref.)", "setting": "Nav1.7", "value": "Nav1.7"}]}
{"substance": "GCKKLNSYCTRQHRECCHGLVCRRPDYGIGRGILWKCTRARK (disulfide 2-17, 9-22, 16-37) [Ms11a-3]", "values": [{"measurement": "IC50", "setting": "mα1β1δε nAChR", "value": 1.21, "unit": "µM"}, {"measurement": "Hill Slope", "setting": "mα1β1δε nAChR; mean (95% confidence interval)", "value": "1.35 (0.71–1.99)"}, {"measurement": "IC50", "setting": "rα6/α3β4 nAChR", "value": "> 10", "unit": "µM"}, {"measurement": "IC50", "setting": "rα4β2 nAChR", "value": "> 10", "unit": "µM"}, {"measurement": "IC50", "setting": "rα2β4 nAChR", "value": "> 10", "unit": "µM"}, {"measurement": "IC50", "setting": "rα4β4 nAChR", "value": "> 10", "unit": "µM"}, {"measurement": "IC50", "setting": "rα3β4 nAChR", "value": 5.17, "unit": "µM"}, {"measurement": "Hill Slope", "setting": "rα3β4 nAChR; mean (95% confidence interval)", "value": "0.84 (0.67–1.00)"}, {"measurement": "IC50", "setting": "rα7 nAChR", "value": 4.79, "unit": "µM"}, {"measurement": "Hill Slope", "setting": "rα7 nAChR; mean (95% confidence interval)", "value": "0.99 (0.59–1.40)"}, {"measurement": "functional potency", "setting": "rα7 nAChR; towards α7 and heteromeric nAChRs", "value": "lowest potency"}, {"measurement": "IC50", "setting": "rα3β2 nAChR", "value": "> 10", "unit": "µM"}, {"measurement": "IC50", "setting": "rα9α10 nAChR", "value": 0.202, "unit": "µM"}, {"measurement": "functional antagonism", "setting": "rα9α10 nAChR; compared to the muscle and α7 receptors", "value": "highest antagonism; also recorded: effectively blocking the neuronal α9α10 and to a lesser extent muscle nAChR subtypes"}, {"measurement": "Hill Slope", "setting": "rα9α10 nAChR; mean (95% confidence interval)", "value": "0.71 (0.52–0.90)"}, {"measurement": "IC50", "setting": "hα7 nAChR", "value": 8.87, "unit": "µM"}, {"measurement": "Hill Slope", "setting": "hα7 nAChR; mean (95% confidence interval)", "value": "0.95 (0.30–1.61)"}, {"measurement": "IC50", "setting": "rα2β2 nAChR", "value": "> 10", "unit": "µM"}]}
{"substance": "GsMTx-4", "values": [{"measurement": "Target (that was in the corresponding Ref.)", "setting": "TRPC1", "value": "TRPC1"}]}
{"substance": "HWTX-IV: Haplopelma schmidti toxin, PDB 1MB6", "values": [{"measurement": "IC50", "setting": "[1]", "value": 0.03, "unit": "µM"}, {"measurement": "No (or weak) effect", "setting": "[2]", "value": "No (or weak) effect"}]}
{"substance": "VSTx1: Grammostola rosea toxin, PDB 2N1N (ECGKFMWKCKNSNDCCKDLVCSSRWKWCVLASPF; UniProt P60980 30-63, looked up)", "values": [{"measurement": "Target (that was in the corresponding Ref.)", "setting": "KVAP", "value": "KVAP"}]}
